Active and inactive are the calls of the source.
What was measured:
[1] = target: T1, Intestinal-type alkaline phosphatase (Homo sapiens, UniProt P09923); test: human IAP activators, dose response, biochemical, luminescent, uHTS hits, set 2 (AID 488817); format: functional;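 note: potency of activators that raise enzyme activity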
[2] = target: T2, RNA-binding protein pos-1 (Caenorhabditis elegans, UniProt G5EF15); test: inhibitors of POS-1/mex-3 RNA binding, dose response, biochemical, fluorescence polarization (AID 1964);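 note: purified POS-1 fused to maltose binding protein made in E. coli; potency of compounds blocking POS-1 binding to fluorescent RNA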
T2 sequence (G5EF15 whole entry): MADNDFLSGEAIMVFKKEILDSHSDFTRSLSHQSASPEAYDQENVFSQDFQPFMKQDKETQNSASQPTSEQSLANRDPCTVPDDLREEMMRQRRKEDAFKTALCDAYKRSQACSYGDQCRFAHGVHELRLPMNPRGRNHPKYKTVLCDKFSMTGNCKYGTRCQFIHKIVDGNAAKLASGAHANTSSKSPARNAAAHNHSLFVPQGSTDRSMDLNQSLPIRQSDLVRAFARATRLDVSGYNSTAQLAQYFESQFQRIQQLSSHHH

[3] = target: T3, Alkaline phosphatase, tissue-nonspecific isozyme (Homo sapiens, UniProt P05186); test: TNAP enzyme activators, dose response, selectivity assay for human IAP activator project, biochemical, TNAP isozyme, human IAP uHTS hits (AID 488886); format: functional;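 note: potency of compounds raising TNAP activity as a selectivity check on IAP activators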
T3 sequence (P05186 whole entry): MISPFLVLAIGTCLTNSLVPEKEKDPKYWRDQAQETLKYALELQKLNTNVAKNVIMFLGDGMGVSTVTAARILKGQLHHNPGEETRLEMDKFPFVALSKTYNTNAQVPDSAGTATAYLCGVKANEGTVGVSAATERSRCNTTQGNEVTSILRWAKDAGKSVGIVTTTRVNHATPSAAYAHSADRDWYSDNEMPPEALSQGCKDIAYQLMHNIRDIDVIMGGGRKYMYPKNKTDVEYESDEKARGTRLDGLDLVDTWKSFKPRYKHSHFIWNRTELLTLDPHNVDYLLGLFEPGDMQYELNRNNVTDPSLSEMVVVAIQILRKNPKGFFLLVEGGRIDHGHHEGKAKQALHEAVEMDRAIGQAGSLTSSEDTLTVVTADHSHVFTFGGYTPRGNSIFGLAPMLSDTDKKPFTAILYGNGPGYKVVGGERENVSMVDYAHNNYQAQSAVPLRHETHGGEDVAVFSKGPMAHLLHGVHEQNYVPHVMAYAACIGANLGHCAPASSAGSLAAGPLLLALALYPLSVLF

[4] = target: T4, Zinc finger protein mex-5 (Caenorhabditis elegans, UniProt Q9XUB2); test: MEX-5/TCR-2 RNA interaction inhibitors, dose response, biochemical, C. elegans, fluorescence polarization (AID 1960)
T4 sequence (Q9XUB2 whole entry): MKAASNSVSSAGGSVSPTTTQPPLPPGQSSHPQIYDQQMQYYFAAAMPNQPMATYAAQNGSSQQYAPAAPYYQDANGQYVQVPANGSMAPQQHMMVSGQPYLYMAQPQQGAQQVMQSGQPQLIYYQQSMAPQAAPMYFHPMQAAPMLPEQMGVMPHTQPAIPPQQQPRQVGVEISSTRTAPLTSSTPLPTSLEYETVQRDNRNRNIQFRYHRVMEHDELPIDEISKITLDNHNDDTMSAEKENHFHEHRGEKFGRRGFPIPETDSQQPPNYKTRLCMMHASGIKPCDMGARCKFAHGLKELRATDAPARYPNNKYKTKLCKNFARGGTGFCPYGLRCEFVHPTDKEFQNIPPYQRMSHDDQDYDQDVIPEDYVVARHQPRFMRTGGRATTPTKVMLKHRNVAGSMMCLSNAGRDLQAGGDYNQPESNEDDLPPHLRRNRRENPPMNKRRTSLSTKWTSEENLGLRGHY

[5] = target: T5, Intestinal-type alkaline phosphatase (Mus musculus, UniProt P24822); test: PubChem AID 488875; format: functional
T5 sequence (P24822 whole entry): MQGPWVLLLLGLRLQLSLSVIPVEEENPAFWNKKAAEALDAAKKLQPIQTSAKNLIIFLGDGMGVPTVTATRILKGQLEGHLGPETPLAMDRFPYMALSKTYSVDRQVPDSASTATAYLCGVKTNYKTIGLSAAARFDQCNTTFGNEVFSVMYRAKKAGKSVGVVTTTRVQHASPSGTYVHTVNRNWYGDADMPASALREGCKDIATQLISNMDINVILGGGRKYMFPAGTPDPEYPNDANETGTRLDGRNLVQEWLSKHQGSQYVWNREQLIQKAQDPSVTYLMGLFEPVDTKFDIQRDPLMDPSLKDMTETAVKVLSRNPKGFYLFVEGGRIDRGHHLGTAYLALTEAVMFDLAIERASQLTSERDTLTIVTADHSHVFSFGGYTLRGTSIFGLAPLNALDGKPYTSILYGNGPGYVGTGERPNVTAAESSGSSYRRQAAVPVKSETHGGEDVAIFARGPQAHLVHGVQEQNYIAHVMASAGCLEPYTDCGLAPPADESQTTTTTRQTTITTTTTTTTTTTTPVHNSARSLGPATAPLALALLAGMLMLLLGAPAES

[6] = target: T1, Intestinal-type alkaline phosphatase; test: human intestinal alkaline phosphatase activators, dose response, biochemical, luminescence, uHTS hits (AID 463120); format: functional
[7] = target: T5, Intestinal-type alkaline phosphatase; test: PubChem AID 488874; format: functional
[8] = HCT116 cell viability decrease, GSK3B pretreatment – CellTiter-Glo, IC50, dose response (AID 1117339); format: functional; details: HCT-116
[9] = cytotoxicity in HPDE-C7 cells, cell-based, fluorescence, HTS (AID 430); format: functional; details: Homo sapiens
Estrogen receptor beta [10] = target: T6, Estrogen receptor beta (Homo sapiens, UniProt Q92731); test: ERβ–SRC-3 coactivator interaction inhibitors, confirmation, orthogonal assay, biochemical, ELISA, streptavidin-HRP readout (AID 1060)
T6 sequence (Q92731 whole entry): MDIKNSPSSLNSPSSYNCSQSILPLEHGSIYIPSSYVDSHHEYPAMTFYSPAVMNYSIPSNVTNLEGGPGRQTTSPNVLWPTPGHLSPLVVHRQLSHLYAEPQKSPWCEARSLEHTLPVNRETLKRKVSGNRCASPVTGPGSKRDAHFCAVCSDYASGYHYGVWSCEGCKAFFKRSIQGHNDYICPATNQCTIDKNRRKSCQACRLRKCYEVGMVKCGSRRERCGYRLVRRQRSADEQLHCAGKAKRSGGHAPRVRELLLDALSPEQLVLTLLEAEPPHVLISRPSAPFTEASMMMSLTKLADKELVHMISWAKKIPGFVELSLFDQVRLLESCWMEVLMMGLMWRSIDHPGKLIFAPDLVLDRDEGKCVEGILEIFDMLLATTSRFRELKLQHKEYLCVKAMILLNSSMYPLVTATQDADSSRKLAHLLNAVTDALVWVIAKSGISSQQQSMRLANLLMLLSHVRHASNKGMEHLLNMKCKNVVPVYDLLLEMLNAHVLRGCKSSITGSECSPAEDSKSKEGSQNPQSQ

[11] = Concentration-dependent survival of SW480 colon cancer line, luminescence detection with CellTiter-Glo, half-maximal inhibitory concentration (AID 1117338); format: functional
Large T antigen = Large T antigen (Simian virus 40, UniProt P03070); test: A confirmatory biochemical assay using the ADP-Hunter methodology, purified TAg, and ATP to quantify activity of synthesized compounds that inhibit the ATPase activity of Tag (3). [Related pubchem assays (depositor defined):AID1903, AID1909, AID2102, AID2501, AID2615, AID2775, AID435001, AID449729]; parameters: species or system Betapolyomavirus macacae
Chain of Large T antigen (P03070 whole entry): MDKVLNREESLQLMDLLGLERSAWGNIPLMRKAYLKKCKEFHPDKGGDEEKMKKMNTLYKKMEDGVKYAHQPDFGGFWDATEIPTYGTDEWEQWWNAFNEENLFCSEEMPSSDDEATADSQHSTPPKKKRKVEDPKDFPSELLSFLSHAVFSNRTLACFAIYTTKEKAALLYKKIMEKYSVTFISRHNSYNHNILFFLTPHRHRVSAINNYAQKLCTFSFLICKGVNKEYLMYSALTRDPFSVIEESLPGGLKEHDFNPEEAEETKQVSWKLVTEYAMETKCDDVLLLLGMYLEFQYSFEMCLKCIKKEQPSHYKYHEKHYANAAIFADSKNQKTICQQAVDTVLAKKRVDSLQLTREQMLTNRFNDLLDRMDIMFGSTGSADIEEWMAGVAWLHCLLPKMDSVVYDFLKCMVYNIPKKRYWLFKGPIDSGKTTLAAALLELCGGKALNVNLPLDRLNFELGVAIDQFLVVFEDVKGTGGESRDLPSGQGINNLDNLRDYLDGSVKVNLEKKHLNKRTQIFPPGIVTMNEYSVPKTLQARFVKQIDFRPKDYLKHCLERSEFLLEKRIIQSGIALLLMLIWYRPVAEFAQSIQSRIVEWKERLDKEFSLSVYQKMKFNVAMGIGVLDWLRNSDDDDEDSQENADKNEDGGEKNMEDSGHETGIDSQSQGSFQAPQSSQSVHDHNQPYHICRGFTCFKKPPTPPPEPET

[12] = HeLa 2N DNA content increase, dose response, cell-based, IC50 (AID 1117349); format: functional
[13] = CellTiter-Glo luminescent dose response of DLD-1 viability loss (AID 1117352); format: functional
[14] = target: T7, Calpain-2 catalytic subunit (Sus scrofa, UniProt P43367); test: pig calpain II inhibitor potency, dose response, biochemical, fluorogenic peptide substrate (AID 1420); format: functional
T7 sequence (P43367 whole entry): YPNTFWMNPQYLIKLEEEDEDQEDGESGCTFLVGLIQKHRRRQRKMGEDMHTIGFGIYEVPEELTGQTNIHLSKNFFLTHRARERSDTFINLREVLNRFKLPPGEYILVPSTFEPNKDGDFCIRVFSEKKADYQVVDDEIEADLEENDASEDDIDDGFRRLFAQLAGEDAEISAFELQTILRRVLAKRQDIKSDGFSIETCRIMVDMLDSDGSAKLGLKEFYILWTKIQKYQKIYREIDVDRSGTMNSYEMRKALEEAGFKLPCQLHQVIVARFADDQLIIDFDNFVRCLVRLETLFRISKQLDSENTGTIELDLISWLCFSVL

[15] = Glucagon-like peptide 1 release potency, NCI-H716 cell line, dose-response, half-maximal inhibitory concentration (AID 1117344); format: functional, cell-based
[16] = cytotoxicity in KRAS-transformed pancreatic duct cells, primary screen, cell-based, fluorescence, HTS (AID 431); format: functional; details: Homo sapiens;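 note: cell line used: HPDE-C7K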
[17] = target: Envelope glycoprotein gp160 (Human immunodeficiency virus 1, UniProt Q6QLK5); test: inhibitors of HIV fusion peptide binding, primary screen, biochemical, uHTS, fluorescence dequenching (AID 1986)
Chain of Envelope glycoprotein gp160 (Q6QLK5 whole entry, the tested form may be a part): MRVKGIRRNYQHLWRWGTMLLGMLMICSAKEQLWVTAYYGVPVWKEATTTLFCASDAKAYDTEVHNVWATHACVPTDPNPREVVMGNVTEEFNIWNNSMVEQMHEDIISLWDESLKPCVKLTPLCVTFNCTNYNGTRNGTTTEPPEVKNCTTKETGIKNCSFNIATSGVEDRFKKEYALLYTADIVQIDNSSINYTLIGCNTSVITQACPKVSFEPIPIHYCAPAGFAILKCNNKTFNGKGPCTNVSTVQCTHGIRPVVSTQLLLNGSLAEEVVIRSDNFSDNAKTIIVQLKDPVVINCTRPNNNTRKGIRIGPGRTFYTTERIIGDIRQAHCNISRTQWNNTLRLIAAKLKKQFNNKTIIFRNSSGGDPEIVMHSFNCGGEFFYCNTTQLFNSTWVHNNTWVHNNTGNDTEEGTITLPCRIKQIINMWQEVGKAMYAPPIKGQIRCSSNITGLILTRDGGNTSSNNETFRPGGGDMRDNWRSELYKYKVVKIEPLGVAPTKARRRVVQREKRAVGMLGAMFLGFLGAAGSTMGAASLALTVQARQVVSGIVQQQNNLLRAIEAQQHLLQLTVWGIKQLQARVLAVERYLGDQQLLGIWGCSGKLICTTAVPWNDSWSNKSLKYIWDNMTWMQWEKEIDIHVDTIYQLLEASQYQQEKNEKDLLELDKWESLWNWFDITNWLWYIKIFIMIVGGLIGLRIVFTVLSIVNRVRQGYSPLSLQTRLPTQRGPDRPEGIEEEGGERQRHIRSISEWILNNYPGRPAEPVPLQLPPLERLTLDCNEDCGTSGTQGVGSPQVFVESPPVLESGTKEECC

[18] = cytotoxicity toward HCT116 cells – cell-based, CellTiter-Glo luminescence, IC50, dose response (AID 1117332); format: functional; details: HCT-116
[19] = cytotoxicity toward HT-29 cells – cell-based, CellTiter-Glo luminescence, IC50, dose response (AID 1117330); format: functional
Aminopeptidase N = target: T8, Aminopeptidase N (Plasmodium falciparum FcB1/Columbia, UniProt O96935); test: P. falciparum M1AAP inhibitors, biochemical, fluorogenic H-Leu-NHMec substrate, 1536-well (AID 1445); parameters: species or system Plasmodium falciparum 3D7, 3D7
T8 sequence (O96935 whole entry): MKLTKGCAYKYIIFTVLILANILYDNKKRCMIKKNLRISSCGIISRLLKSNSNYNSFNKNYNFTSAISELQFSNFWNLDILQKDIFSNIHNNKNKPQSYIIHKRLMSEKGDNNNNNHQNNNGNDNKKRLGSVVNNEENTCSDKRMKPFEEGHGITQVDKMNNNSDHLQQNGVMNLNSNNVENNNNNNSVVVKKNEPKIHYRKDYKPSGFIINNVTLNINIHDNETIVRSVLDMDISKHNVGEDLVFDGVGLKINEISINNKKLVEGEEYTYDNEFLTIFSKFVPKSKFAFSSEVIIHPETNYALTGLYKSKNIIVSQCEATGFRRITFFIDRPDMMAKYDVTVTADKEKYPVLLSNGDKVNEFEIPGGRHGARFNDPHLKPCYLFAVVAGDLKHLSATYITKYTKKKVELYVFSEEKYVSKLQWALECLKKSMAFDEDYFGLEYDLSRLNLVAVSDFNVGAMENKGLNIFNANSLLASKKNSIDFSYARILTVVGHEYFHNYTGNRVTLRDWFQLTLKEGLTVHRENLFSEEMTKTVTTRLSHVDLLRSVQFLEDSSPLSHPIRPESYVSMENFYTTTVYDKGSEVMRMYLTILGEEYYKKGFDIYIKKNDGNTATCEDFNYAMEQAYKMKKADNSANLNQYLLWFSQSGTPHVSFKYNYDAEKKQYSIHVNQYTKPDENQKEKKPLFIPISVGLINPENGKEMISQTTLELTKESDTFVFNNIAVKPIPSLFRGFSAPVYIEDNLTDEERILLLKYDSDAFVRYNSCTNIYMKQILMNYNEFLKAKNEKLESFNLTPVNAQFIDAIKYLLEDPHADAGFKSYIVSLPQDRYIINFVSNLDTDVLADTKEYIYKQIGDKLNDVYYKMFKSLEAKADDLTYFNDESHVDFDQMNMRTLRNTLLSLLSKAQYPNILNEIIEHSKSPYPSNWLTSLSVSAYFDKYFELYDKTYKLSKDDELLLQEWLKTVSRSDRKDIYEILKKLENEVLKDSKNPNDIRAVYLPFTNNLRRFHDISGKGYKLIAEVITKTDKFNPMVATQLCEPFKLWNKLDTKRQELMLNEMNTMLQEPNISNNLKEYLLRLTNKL

[20] = SNU-C1 cell viability reduction, dose response, CellTiter-Glo luminescence (AID 1117323); format: functional, cell-based
[21] = half-maximal inhibitory concentration for glucagon-like peptide-1 release, STC-1 cell line, dose-response (AID 1117345); format: functional, cell-based
[22] = cytotoxicity toward Colo320 cells – cell-based, CellTiter-Glo luminescence, IC50, dose response (AID 1117334); format: functional; details: COLO 320
[23] = RKO cell viability reduction, dose response, CellTiter-Glo luminescence (AID 1117322); format: functional
[24] = HeLa 4N DNA content increase, dose response, cell-based, IC50 (AID 1117351); format: functional
[25] = target: Induced myeloid leukemia cell differentiation protein Mcl-1 (Homo sapiens, UniProt Q07820); format: functional
Chain of Induced myeloid leukemia cell differentiation protein Mcl-1 (Q07820 whole entry): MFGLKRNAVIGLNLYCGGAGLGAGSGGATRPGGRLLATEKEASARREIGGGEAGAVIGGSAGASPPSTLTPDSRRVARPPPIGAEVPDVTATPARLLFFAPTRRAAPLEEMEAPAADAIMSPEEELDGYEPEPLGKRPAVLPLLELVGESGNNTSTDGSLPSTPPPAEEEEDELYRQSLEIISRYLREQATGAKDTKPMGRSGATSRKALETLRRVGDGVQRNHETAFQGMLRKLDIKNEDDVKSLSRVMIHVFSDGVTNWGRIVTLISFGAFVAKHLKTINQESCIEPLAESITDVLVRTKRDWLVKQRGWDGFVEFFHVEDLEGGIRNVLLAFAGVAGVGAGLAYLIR

Estrogen receptor beta [26] = target: T6, Estrogen receptor beta
Protein Rev = Protein Rev (Human immunodeficiency virus type 1 group M subtype B (isolate HXB2)(HIV-1), UniProt P04618); test: inhibitors of Rev binding to RRE RNA, dose response, biochemical, fluorescence polarization, HIV-1 (AID 434976); parameters: species or system Human immunodeficiency virus 1
Chain of Protein Rev (P04618 whole entry): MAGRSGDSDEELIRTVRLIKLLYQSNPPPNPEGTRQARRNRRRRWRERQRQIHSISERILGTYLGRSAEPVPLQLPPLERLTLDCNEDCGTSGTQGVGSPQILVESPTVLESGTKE

[27] = target: Female germline-specific tumor suppressor gld-1 (Caenorhabditis elegans, UniProt Q17339); test: inhibitors of GLD-1 binding to TGE RNA, dose response, biochemical, fluorescence polarization, C. elegans (AID 2802);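 note: fluorescence polarization of labeled TGE RNA bound by purified gld-1 protein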
Chain of Female germline-specific tumor suppressor gld-1 (Q17339 whole entry): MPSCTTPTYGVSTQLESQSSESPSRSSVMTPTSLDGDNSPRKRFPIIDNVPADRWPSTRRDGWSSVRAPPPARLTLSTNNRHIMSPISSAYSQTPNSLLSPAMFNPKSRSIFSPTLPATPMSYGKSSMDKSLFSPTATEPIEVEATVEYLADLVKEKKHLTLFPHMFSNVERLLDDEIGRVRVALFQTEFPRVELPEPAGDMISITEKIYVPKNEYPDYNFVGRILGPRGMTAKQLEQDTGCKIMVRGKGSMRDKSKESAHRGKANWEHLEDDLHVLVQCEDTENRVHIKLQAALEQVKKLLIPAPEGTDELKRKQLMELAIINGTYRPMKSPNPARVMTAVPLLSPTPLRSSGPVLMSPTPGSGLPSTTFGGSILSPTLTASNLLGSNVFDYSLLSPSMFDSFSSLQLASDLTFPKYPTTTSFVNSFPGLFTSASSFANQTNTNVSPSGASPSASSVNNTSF

T1 sequence (P09923 whole entry, the tested form may be a part): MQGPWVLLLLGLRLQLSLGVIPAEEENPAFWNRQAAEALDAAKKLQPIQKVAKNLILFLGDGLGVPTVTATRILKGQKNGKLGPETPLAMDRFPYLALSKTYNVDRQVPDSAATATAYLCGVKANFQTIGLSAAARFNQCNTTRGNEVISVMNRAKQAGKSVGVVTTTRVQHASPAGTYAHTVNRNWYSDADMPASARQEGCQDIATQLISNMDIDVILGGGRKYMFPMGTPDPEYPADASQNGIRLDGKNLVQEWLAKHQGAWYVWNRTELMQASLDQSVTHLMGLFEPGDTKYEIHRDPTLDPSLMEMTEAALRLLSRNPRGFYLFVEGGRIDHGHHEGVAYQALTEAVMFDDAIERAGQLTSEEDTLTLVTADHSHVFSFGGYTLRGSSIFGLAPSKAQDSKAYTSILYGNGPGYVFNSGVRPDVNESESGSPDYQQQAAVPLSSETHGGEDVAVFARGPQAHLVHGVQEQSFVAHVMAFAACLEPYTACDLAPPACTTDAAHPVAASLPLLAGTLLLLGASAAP

Question: With `O=C(NNC(=S)NC(=O)c1ccccc1[N+](=O)[O-])c1ccccc1O` as the molecule, how does the EC50 [1] read?
Answer: 9.62 µM (active)

Question: What about the EC50 [2] of the same molecule?
Answer: 134 µM (active)

Question: And the EC50 [3]?
Answer: 11.2 µM (active)

Question: What about the EC50 [4] of the same molecule?
Answer: 32.2 µM (active)

Question: And the EC50 [5]?
Answer: > 100 µM (inactive)

Question: What about the EC50 [6] of the same molecule?
Answer: 9.16 µM (active)

Question: And the IC50 [7]?
Answer: > 100 µM (inactive)

Question: With `Oc1c(Cl)cc(Cl)cc1Sc1cc(Cl)cc(Cl)c1O` [BITHIONOL] as the molecule, how does the IC50 [8] read?
Answer: 0.001 µM (active)

Question: What about the EC50 [9] of the same molecule?
Answer: 1.21 µM (active)

Question: And the IC50 (Estrogen receptor beta [10])?
Answer: > 109 µM (not active)

Question: What about the IC50 [11] of the same molecule?
Answer: 0.001 µM (active)

Question: What about the IC50 (Large T antigen) of the same molecule?
Answer: 35.7 µM (active)

Question: What about the IC50 [12] of the same molecule?
Answer: > 10 µM (inactive)

Question: What about the IC50 [13] of the same molecule?
Answer: 0.001 µM (active)

Question: What about the IC50 [14] of the same molecule?
Answer: 4.75 µM (not active)

Question: What about the IC50 [15] of the same molecule?
Answer: 19.4 µM (inactive)

Question: And the EC50 [16]?
Answer: 1.34 µM (active)

Question: What about the IC50 [17] of the same molecule?
Answer: 6.16 µM (active)

Question: What about the IC50 [18] of the same molecule?
Answer: 0.001 µM (active)

Question: And the IC50 [19]?
Answer: 0.996 µM (active)

Question: And the IC50 (Aminopeptidase N)?
Answer: 42.9 µM (active)

Question: And the IC50 [20]?
Answer: 0.00867 µM (active)

Question: What about the IC50 [21] of the same molecule?
Answer: > 20 µM (inactive)

Question: And the IC50 [22]?
Answer: 0.015 µM (active)

Question: And the IC50 [23]?
Answer: 0.001 µM (active)

Question: And the IC50 [24]?
Answer: > 10 µM (inactive)

Question: And the IC50 [25]?
Answer: 1.9 µM (active)

Question: What about the IC50 (Estrogen receptor beta [26]) of the same molecule?
Answer: 8.15 µM (active)

Question: Which results are given for `CC1CN(C2=Nc3cccc4cccc2c34)CC(C)O1` (stereo not given)?
Answer: IC50 (Protein Rev): 18.2 µM (not active); IC50 [27]: 9.4 µM (active)
